7 molecules from PubChem BioAssay (NCI) can be followed below.

What all share (assay): DTP human tumour cell line panel, 48 h
The subject of assay [1] is CAKI-1 renal.
In assay [2] the test system is EKVX NSCLC.
Assay [3] relates to K-562 leukemia.
Assay [4] concerns MALME-3M melanoma.
Assay [5] concerns MCF7 breast.
The test system of assay [6] is MDA-MB-231 breast.
Assay [7] concerns OVCAR-8 ovarian.
The test system of assay [8] is SF-268 CNS.
In assay [9] the test system is SF-295 CNS.
The test system of assay [10] is SK-MEL-28 melanoma.

Several values for one entry are separate records, joined by “and”; a condition that tells them apart may be missing. Equal entries are not always repeated.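 Five compound concentrations were applied to cells in 96-well plates for 48 hours; endpoints were derived by simple linear interpolation of the resulting dose-response curve. At the GI50, growth is halved. TGI is the concentration that stops growth completely.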

Usually GI50 stands for the concentration at which growth is held to half of that of the control. As usually defined, the TGI is the concentration giving total growth inhibition. On to `COc1ccc2cc(-c3cc4c(oc3=O)-c3ccccc3OC4O)c(=O)oc2c1` (centres undefined), for which the GI50 in [1] is 14.9 µM; in assay [2], 15.2 µM; in [3], 92.9 µM; in assay [4], 19.3 µM; in [5], 17.1 µM; in [6] it was 17.9 µM. In addition, the GI50 is 17.5 µM in assay [7], 16.9 µM in assay [8] and 16.7 µM in assay [10]. In addition, the concentration for total growth inhibition (TGI) in assay [1] is 29.8 µM; in assay [2] it was 32.8 µM; in assay [3], above 100 µM; in assay [4], 36.8 µM; in assay [5] it was 34.1 µM; in [6], 36.1 µM. Further, the total growth inhibition concentration (TGI) amounted to 35.3 µM in assay [7], 33.8 µM in assay [8], 15.3 µM in assay [9] and 32.2 µM in assay [10].

For the molecule `CN(C)c1ccc(N=C2C=CC(=[N+](C)C)C=C2)cc1`, the GI50 in [1] is 12.1 µM; in assay [2] it was 3.58 µM; in assay [4], 8.97 µM; in assay [5], 4.03 µM; in assay [6], 6.41 µM; in [7] it was 4.51 µM. The results for the GI50 in assay [8], in assay [9] and in assay [10] were 11 µM, 4.62 µM and 14.2 µM, respectively. Further, the total growth inhibition concentration (TGI) in [1] is 41.8 µM; in assay [2] it was 40.7 µM; in [4], 38.6 µM; in [5], 17.6 µM; in [6], above 100 µM; in assay [7], above 100 µM. Moreover, the figures for the TGI in assay [8], in assay [9] and in [10] were 68.1 µM, 22.1 µM and above 100 µM, respectively.

In the case of `C[C@]12CC[C@H](O)C[C@H]1CC[C@@H]1[C@@H]2CC[C@]2(C)[C@@H](C3=CC(=O)OC3)[C@@H](O)C[C@]12O`, the concentration for total growth inhibition (TGI) was 3.15 µM in assay [1]; 2.78 µM in assay [2]; above 52.2 µM in assay [3]; 4.23 µM in [4]; 11.1 µM in assay [5]; 20.1 µM in assay [6]. Further, the concentration for total growth inhibition (TGI) in assay [7] came out at 14.6 µM; in assay [8], 2.55 µM; in assay [9], 10.9 µM; in assay [10], 25.6 µM.

Take `CC1(C)CCC2=C(O1)c1ccccc1C(=O)C2=O`: the GI50 in assay [1] was 1.74 µM; in [4], 1.51 µM; in assay [5], 1.53 µM; in assay [6], 2.01 µM; in assay [7] it was 0.53 µM; in [8], 1.44 µM. For the same molecule, the GI50 in [9] is 1.67 µM; in assay [10] it was 1.88 µM and 0.406 µM. The TGI in assay [1] is 3.13 µM and 2.47 µM; in assay [2], 3.78 µM and 3.59 µM; in assay [4], 2.84 µM and 0.974 µM; in assay [5], 3.6 µM and 1.05 µM; in assay [6] it was 5.55 µM and 1.67 µM; in [7], 2.27 µM and 1.59 µM. Also, the total growth inhibition concentration (TGI) was 3.32 µM and 1.83 µM in [8]; 3.1 µM and 1.68 µM in assay [9]; 3.39 µM and 1.44 µM in assay [10].

As for `COc1cc2nc(SCC(=O)Nc3cc(OC)c(OC)c(OC)c3)n(Cc3ccccc3)c(=O)c2cc1OC`, the GI50 in assay [1] is 3.05 µM; in [2] it was 5.12 µM; in [3] it was above 100 µM; in assay [4] it was 3.3 µM; in [5] it was 7.93 µM; in [6], 3.73 µM. The GI50 in assay [7] is 3.46 µM; in [8], 3.57 µM; in assay [10] it was 3.02 µM. Further, the concentration for total growth inhibition (TGI) was 28.8 µM in [1]; 31.1 µM in [2]; above 100 µM in assay [3]; above 100 µM in assay [4]; above 100 µM in [5]; 37.8 µM in assay [6]. For the same molecule, the TGI in assay [7] came to 34.9 µM; in assay [8] it was 23.2 µM; in [10], 11.4 µM.

`COc1cc(OC)c(/C=C\c2ccnc3ccccc23)c(OC)c1`: the TGI in assay [1] was found to be 22.2 µM; in assay [2] it was 17.7 µM; in assay [3] it was 2.24 µM; in [4], 16.5 µM; in assay [5], 21.4 µM; in assay [6], 15.4 µM. Further, the total growth inhibition concentration (TGI) in [8] was 22.8 µM; in assay [9], 8.35 µM; in assay [10] it was 17.9 µM.

On to `CCCCCCCCN(CCCCCCCC)CCCCCCNc1cc(OC)cc2cccnc12`, for which the GI50 in assay [1] is 12.1 µM; in [2] it was 6.82 µM; in assay [4], 6.92 µM; in assay [5], 3.33 µM; in [6] it was 4.75 µM; in [7] it was 3.39 µM. Moreover, the values for the GI50 in assay [8], in assay [9] and in assay [10] were 12.7 µM, 14 µM and 13.6 µM, respectively. The TGI in [1] is 32.5 µM; in [2], 24 µM; in assay [4], 21.9 µM; in assay [5] it was 12.4 µM; in assay [6] it was 15.9 µM; in [7], 12.4 µM. Also, the figures for the concentration for total growth inhibition (TGI) in assay [8], in assay [9] and in assay [10] were 30 µM, 29.3 µM and 27.1 µM, respectively.
